# Experimental data taken from PMC10850145, “Hormonal steroids induce multidrug resistance and stress response genes in Neisseria gonorrhoeae by binding to MtrR” (Nature Communications, 2024).
# “And” between values parts separate entries of the source, which are not always exact repeats. Equal entries are not always repeated. “Also recorded” adds a separate entry of the source. Where two headings read alike, the source gives them in different places.
# How the values were obtained:
# N. gonorrhoeae = tested on: N. gonorrhoeae; design: method as in PMID 816438; conditions: listed as PTR; cited from earlier work
# wild type FA19 = assay: Antimicrobial susceptibility spot assay with hormone plus azithromycin or polymyxin B, wild type FA19; type: cell-based, Neisseria gonorrhoeae; conditions: wild-type FA19, GC agar, 24 h, visual
# Procedure: Fig. 5 Effect of steroidal hormones on gonococcal antimicrobial susceptibility.
# To determine the minimal inhibitory concentrations (MICs) by the steroidal hormones and their effect on antimicrobial susceptibility, 5 x 10^5 CFU and 1:5 serial dilutions of gonococcal strains were spotted on GC agar plates containing different concentrations of antibiotics and/or hormones as indicated. Antimicrobial susceptibility was assessed after 24 h incubation.
# MtrR = target: T1, MtrR (Neisseria gonorrhoeae, UniProt P39897); assay: Isothermal titration calorimetry, ligand binding to MtrR WT; conditions: equilibrium dissociation constant (Kd), MtrR WT, ITC, 25 °C, 1% MeOH
# T1 construct: Hexa-histidine tag with TEV protease cleavage site (N, cleaved yes); made in house; host or cells: E. coli Rosetta Gami B(DE3) pLysS
# [1] = target: T2, MtrR binding to mtrCDE operator (21mer) (Neisseria gonorrhoeae, UniProt P39897); assay: Fluorescence polarization based DNA binding assay, mtrCDE operator; conditions: mtrCDE 21mer + 125 µM steroid
# T2 construct: Hexa-histidine tag with TEV protease cleavage site (N, cleaved yes); made in house; host or cells: E. coli Rosetta Gami B(DE3) pLysS
# Procedure: (§1) Fluorescence polarization based-DNA binding data were collected using a Panvera Beacon 2000 fluorescence polarization system (Invitrogen) and analyzed with Prism (Graphpad Software 9, 10). Purified MtrR was buffer exchanged into “DNA” binding buffer (150 mM NaCl, 20 mM Tris-HCl pH 7.5, 2.5% glycerol, 1 mM TCEP). […] The reported oligoduplexes containing the rpoH and mtrCDE binding site differ in lengths, 27mer and 21mer, respectively[17],[21]. […] BSA and dI-dC are included as carriers and to control for nonspecific DNA binding. Samples were excited at 490 nm and polarized emissions measured at 530 nm. Controls were run with no protein (DNA ± methanol, hormonal steroids) to ensure that millipolarization values were not affected by experimental conditions alone. The binding affinity of protein for DNA was determined using the following equation: P = Pf + (Pb – Pf) [M] / (Kd + [M]) where P is the measured polarization, Pf is the polarization of free DNA, Pb is the polarization of the completely bound DNA, Kd is the equilibrium dissociation constant, and M is the concentration of protein. Pb and Kd were determined by nonlinear least-squares analysis. At least three independent experimental measurements were averaged for each reported binding constant.
# MtrR R176E = target: T3, MtrR R176E (Neisseria gonorrhoeae, UniProt P39897, R176E); assay: biochemical; type: binding
# T3 construct: Hexa-histidine tag with TEV protease cleavage site (N, cleaved yes); made in house; host or cells: E. coli Rosetta Gami B(DE3) pLysS
# [2] = target: T4, MtrR binding to rpoH operator (27mer) (Neisseria gonorrhoeae, UniProt P39897); assay: Fluorescence polarization based DNA binding assay, rpoH operator; conditions: rpoH 27mer + 125 µM steroid
# T4 construct: Hexa-histidine tag with TEV protease cleavage site (N, cleaved yes); made in house; host or cells: E. coli Rosetta Gami B(DE3) pLysS
# Procedure: as §1
# ngo1249-lacZ expression = assay: β-galactosidase assay, ngo1249-lacZ fusion (negative control gene); conditions: WT-NGO1249-lacZ
# rpoH-lacZ expression = type: cell-based, Neisseria gonorrhoeae; conditions: for Miller units, single well: individual replicate; for Miller units, Mean: mean of 4 wells
# [3] = 6.25 µM hormone, plate columns 1-6 (WT)
# [4] = 6.25 µM hormone, plate columns 7-12 (second strain, not WT)
# [5] = 12.5 µM hormone, plate columns 1-6 (WT)
# T2 sequence (P39897 whole entry): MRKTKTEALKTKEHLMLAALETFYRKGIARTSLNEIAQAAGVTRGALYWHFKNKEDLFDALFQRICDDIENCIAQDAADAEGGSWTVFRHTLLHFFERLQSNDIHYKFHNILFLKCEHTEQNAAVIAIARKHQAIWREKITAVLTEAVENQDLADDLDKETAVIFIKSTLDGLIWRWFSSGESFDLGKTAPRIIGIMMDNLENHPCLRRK
# T4 sequence (P39897 whole entry): as above
# T3 sequence (P39897 whole entry R176E): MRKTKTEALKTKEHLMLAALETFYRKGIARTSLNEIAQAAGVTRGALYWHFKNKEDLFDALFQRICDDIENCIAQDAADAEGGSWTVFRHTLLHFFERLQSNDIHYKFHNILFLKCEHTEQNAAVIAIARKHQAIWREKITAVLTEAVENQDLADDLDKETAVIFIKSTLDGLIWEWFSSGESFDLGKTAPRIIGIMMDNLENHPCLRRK
# T1 sequence (P39897 whole entry): as the sequence (P39897 whole entry) above
smiles,measurement,setting,value
"CC(=O)[C@H]1CC[C@H]2[C@@H]3CCC4=CC(=O)CC[C@]4(C)[C@H]3CC[C@]12C [Progesterone, progesterone]",growth inhibition of N. gonorrhoeae,N. gonorrhoeae,arrest N. gonorrhoeae growth; also recorded: most effective in growth inhibition
same,resistance to azithromycin in presence of sub-lethal hormone,wild type FA19,elevated levels of resistance
same,Kd,MtrR,2750 ± 700 nM
same,"fluorescence polarization, MtrR titration",[1]; MtrR WT dimer 0.00 nM,0.00 mP
same,"fluorescence polarization, MtrR titration",[1]; MtrR WT dimer 3.83 nM,3.14 mP
same,"fluorescence polarization, MtrR titration",[1]; MtrR WT dimer 8.85 nM,6.47 mP
same,"fluorescence polarization, MtrR titration",[1]; MtrR WT dimer 11.32 nM,7.37 mP and 3.83 mP and 6.23 mP
same,"fluorescence polarization, MtrR titration",[1]; MtrR WT dimer 16.21 nM,8.61 mP and 4.53 mP and 7.86 mP
same,"fluorescence polarization, MtrR titration",[1]; MtrR WT dimer 35.50 nM,11.01 mP and 7.99 mP and 10.09 mP
same,"fluorescence polarization, MtrR titration",[1]; MtrR WT dimer 73.35 nM,14.94 mP and 12.16 mP and 13.46 mP
same,"fluorescence polarization, MtrR titration",[1]; MtrR WT dimer 110.67 nM,19.14 mP and 15.56 mP and 17.23 mP
same,"fluorescence polarization, MtrR titration",[1]; MtrR WT dimer 147.65 nM,23.64 mP and 19.79 mP and 21.69 mP
same,"fluorescence polarization, MtrR titration",[1]; MtrR WT dimer 220.59 nM,29.74 mP and 25.09 mP and 27.23 mP
same,"fluorescence polarization, MtrR titration",[1]; MtrR WT dimer 292.55 nM,32.91 mP and 28.39 mP and 31.63 mP
same,"fluorescence polarization, MtrR titration",[1]; MtrR WT dimer 363.86 nM,35.71 mP and 31.19 mP and 34.99 mP
same,"fluorescence polarization, MtrR titration",[1]; MtrR WT dimer 434.54 nM,39.37 mP and 32.93 mP and 37.49 mP
same,"fluorescence polarization, MtrR titration",[1]; MtrR WT dimer 504.61 nM,40.97 mP and 36.33 mP and 40.13 mP
same,"fluorescence polarization, MtrR titration",[1]; MtrR WT dimer 574.07 nM,43.64 mP and 38.96 mP and 42.59 mP
same,"fluorescence polarization, MtrR titration",[1]; MtrR WT dimer 711.46 nM,46.37 mP and 42.63 mP and 45.23 mP
same,"fluorescence polarization, MtrR titration",[1]; MtrR WT dimer 848.00 nM,49.37 mP and 45.06 mP and 48.53 mP
same,Kd,MtrR R176E,8.43 ± 8.3 µM
same,"fluorescence polarization, MtrR titration",[2]; MtrR WT dimer 0.00 nM,0.00 mP
same,"fluorescence polarization, MtrR titration",[2]; MtrR WT dimer 25.90 nM,11.91 mP and 9.75 mP and 10.51 mP
same,"fluorescence polarization, MtrR titration",[2]; MtrR WT dimer 35.50 nM,14.38 mP and 9.72 mP and 14.14 mP
same,"fluorescence polarization, MtrR titration",[2]; MtrR WT dimer 54.52 nM,18.81 mP and 15.99 mP and 17.44 mP
same,"fluorescence polarization, MtrR titration",[2]; MtrR WT dimer 73.35 nM,23.45 mP and 18.32 mP and 20.67 mP
same,"fluorescence polarization, MtrR titration",[2]; MtrR WT dimer 110.67 nM,27.11 mP and 21.95 mP and 25.01 mP
same,"fluorescence polarization, MtrR titration",[2]; MtrR WT dimer 147.65 nM,29.38 mP and 25.62 mP and 28.21 mP
same,"fluorescence polarization, MtrR titration",[2]; MtrR WT dimer 220.59 nM,32.78 mP and 29.35 mP and 32.41 mP
same,"fluorescence polarization, MtrR titration",[2]; MtrR WT dimer 292.55 nM,36.31 mP and 32.79 mP and 35.11 mP
same,"fluorescence polarization, MtrR titration",[2]; MtrR WT dimer 363.86 nM,36.91 mP and 35.45 mP and 37.94 mP
same,"fluorescence polarization, MtrR titration",[2]; MtrR WT dimer 434.54 nM,40.61 mP and 38.05 mP and 40.54 mP
same,"fluorescence polarization, MtrR titration",[2]; MtrR WT dimer 504.61 nM,41.81 mP and 39.19 mP and 42.17 mP
same,"fluorescence polarization, MtrR titration",[2]; MtrR WT dimer 574.07 nM,44.75 mP and 41.42 mP and 44.21 mP
same,Mean Miller units,ngo1249-lacZ expression; 0.1 µM hormone,5 Miller units
same,Mean Miller units,ngo1249-lacZ expression; 1 µM hormone,8 Miller units
same,Mean Miller units,ngo1249-lacZ expression; 10 µM hormone,8 Miller units
same,Mean Miller units,ngo1249-lacZ expression; 50 µM hormone,6.43 Miller units
same,Mean Miller units,ngo1249-lacZ expression; 100 µM hormone,6.923 Miller units
same,"Miller units, single well",rpoH-lacZ expression; [3],42 Miller units and 34 Miller units and 33 Miller units
same,"Miller units, Mean",rpoH-lacZ expression; [3],35 Miller units
same,"Miller units, single well",rpoH-lacZ expression; [4],87 Miller units and 84 Miller units and 94 Miller units and 85 Miller units
same,"Miller units, Mean",rpoH-lacZ expression; [4],87 Miller units
same,"Miller units, single well",rpoH-lacZ expression; [5],35 Miller units and 36 Miller units and 31 Miller units and 38 Miller units
same,"Miller units, Mean",rpoH-lacZ expression; [5],35 Miller units
same,"Miller units, single well","rpoH-lacZ expression; 12.5 µM hormone, plate columns 7-12 (second strain, not WT)",87 Miller units and 78 Miller units and 71 Miller units and 77 Miller units
